The nature of data set [1]: Cardiac indexes, Bel-7402 HCC mice. In kind it is in vivo, nude mice. The conditions noted are these: high dose, after treatment.
The target of data set [2] is T1, PEPT1 (Homo sapiens, UniProt P46059).
T1 construct: endogenous in cells; host or cells: Bel-7402, HepG2 (human HCC cells); Caco-2
T1 sequence (P46059 1-708): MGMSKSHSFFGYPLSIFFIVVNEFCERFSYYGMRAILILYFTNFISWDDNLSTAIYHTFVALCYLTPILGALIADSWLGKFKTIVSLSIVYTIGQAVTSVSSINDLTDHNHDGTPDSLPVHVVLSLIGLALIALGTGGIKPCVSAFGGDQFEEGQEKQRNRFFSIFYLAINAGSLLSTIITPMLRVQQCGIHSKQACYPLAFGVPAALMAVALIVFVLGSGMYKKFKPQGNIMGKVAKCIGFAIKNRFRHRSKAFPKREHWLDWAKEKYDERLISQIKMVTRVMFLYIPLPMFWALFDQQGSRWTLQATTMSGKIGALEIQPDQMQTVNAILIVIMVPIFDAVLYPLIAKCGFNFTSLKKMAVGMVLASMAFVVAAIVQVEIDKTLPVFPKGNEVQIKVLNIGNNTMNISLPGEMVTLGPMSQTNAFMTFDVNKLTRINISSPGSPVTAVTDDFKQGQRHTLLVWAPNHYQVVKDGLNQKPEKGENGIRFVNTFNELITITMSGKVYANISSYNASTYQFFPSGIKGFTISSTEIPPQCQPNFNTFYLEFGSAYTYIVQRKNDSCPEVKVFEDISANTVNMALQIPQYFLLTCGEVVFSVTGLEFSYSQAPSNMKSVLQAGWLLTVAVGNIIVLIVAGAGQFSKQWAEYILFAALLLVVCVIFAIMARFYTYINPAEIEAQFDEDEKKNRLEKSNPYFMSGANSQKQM
Description: Uptake, dynamic and competitive inhibition test. In kind it is cell-based. The conditions noted are these: inhibitors 0.01 mg/ml preincubated 30 mins, then drug 1 h. Here is the method:
The transport of Doxorubicin-tripeptide conjugate by PEPT1 was evaluated by time course, dynamic and competitive inhibition tests. The uptake study was performed on the confluent cell monolayer as described previously.
The uptake buffer was HBSS buffer (0.952 mM CaCl2, 5.36 mM KCl, 0.441 mM KH2PO4, 0.812 mM MgSO4, 136.7 mM NaCl, 0.385 mM Na2HPO4, 25 mM D-glucose, and 10 mM HEPES) adjusted to pH 6.0. […] Then four different initial concentrations (0.025 mg/ml, 0.05 mg/ml, 0.10 mg/ml, 0.15 mg/ml) of Doxorubicin-tripeptide conjugate were incubated with HCC cell monolayer at pH 6.0 for 120 min. At last, 0.05 mg/ml Doxorubicin-tripeptide conjugate was fed to HCC cells at different pH uptake buffer (5.4, 6, 7.4 and 8.4) for 120 min. Inhibition tests were conducted by preincubating the cells with competitive compounds Gly-Sar, Gly-Gln, Gly-Gly-Gly (0.01 mg/ml) respectively for 30 mins and then incubated with Doxorubicin-tripeptide conjugate (0.05 mg/ml) for 1 h. After removing the buffer and rapidly washing 3 times with ice-cold PBS, the cellular uptake was specifically examined with a Multi-Mode Reader (BioTek, Synergy 2, USA) with Excitation 485/20 and Emission 590/35.

Molecules are shown by their SMILES. Counter-ions that a name gives are not always drawn. Marks after values point to notes of the source that are not given here.

Take `COc1cccc2c1C(=O)c1c(O)c3c(c(O)c1C2=O)C[C@@](O)(C(=O)CO)C[C@@H]3O[C@H]1C[C@H](N)[C@H](O)[C@H](C)O1` [Doxorubicin, Doxorubicin hydrochloride]: in data set [1], the AST is reported as 1400.83 ± 506.35^a U/L, the CK is given as 1357.83 ± 504.33^ac U/L, the CK-Mb was found to be 823.17 ± 342.53 U/L and the GSH-PX is listed as 462.36 ± 100.90^a U. Also, in data set [1], the LDH is listed as 5811.67 ± 3290.44 U/L, the MDA is on record as 3.43 ± 0.35^a nmol/mg and the SOD is 151.60 ± 18.08^a U/mg. Also, in data set [2], the “uptake in presence of inhibitors Gly-Sar, Gly-Gln or Gly-Gly-Gly” value is recorded as “not”.

The values are drawn from PMC5522267, “Targeting PEPT1: a novel strategy to improve the antitumor efficacy of doxorubicin in human hepatocellular carcinoma therapy” (Oncotarget, 2017).
